Among the test systems are UACC-257 melanoma; MALME-3M melanoma; SN12C renal; NCI-H226 lung; TK-10 renal; RPMI-8226 leukemia; DMS 273 small cell lung; KM20L2 colon; M19-MEL melanoma; RXF 393 renal; MDA-N; BT-549 breast.
What all share (experiment): NCI-60 cell line screen, 48 h

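A five-concentration, 48-hour dose response in 96-well plates underlies each endpoint, interpolated linearly between surrounding concentrations. TGI: concentration producing complete growth inhibition.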

Take `CCN(/N=C1\CC2C=CCN(C2)C(=O)Cc2c1[nH]c1ccccc21)S(=O)(=O)c1ccc(C)cc1` (stereo not given): the TGI with UACC-257 melanoma is more than 100 µM; with MALME-3M melanoma, more than 100 µM; in the experiment with SN12C renal it was more than 100 µM; in the experiment with NCI-H226 lung it was 38.6 µM; with TK-10 renal, more than 100 µM; in the experiment with RPMI-8226 leukemia, more than 100 µM. Besides, the TGI in the experiment on DMS 273 small cell lung, in the experiment with KM20L2 colon and with M19-MEL melanoma was more than 100 µM throughout.

On to `C/C(CCN(C)C)=N\OC(=O)c1ccccc1`, for which the TGI in the experiment on UACC-257 melanoma, in the experiment with MALME-3M melanoma, in the experiment on SN12C renal, in the experiment on NCI-H226 lung, with TK-10 renal and in the experiment on RPMI-8226 leukemia was more than 100 µM each time. Besides, the TGI in the experiment with RXF 393 renal, in the experiment with DMS 273 small cell lung, in the experiment with KM20L2 colon and with M19-MEL melanoma was more than 100 µM in each case.

Turning to `NC(CSCSCC(N)C(=O)O)C(=O)O` (stereo not given), the TGI in the experiment on UACC-257 melanoma, in the experiment on MALME-3M melanoma, with SN12C renal, in the experiment on NCI-H226 lung, with RPMI-8226 leukemia and with RXF 393 renal was more than 225 µM each time. Also, the TGI with DMS 273 small cell lung, with KM20L2 colon and with M19-MEL melanoma was more than 225 µM throughout.

`CC(C)C(CCOS(=O)(=O)O)CCC(C)[C@H]1[C@@H](O)C(O)C2[C@]3(O)C[C@@H](O)C4(O)C[C@@H](O)CC[C@]4(C)C3CC[C@@]21C` (stereo not given in full): the TGI in the experiment on MALME-3M melanoma, in the experiment with SN12C renal, in the experiment on NCI-H226 lung, in the experiment with TK-10 renal, in the experiment with RPMI-8226 leukemia and in the experiment with RXF 393 renal was more than 100 µM each time. Also, the TGI in the experiment on DMS 273 small cell lung, with KM20L2 colon and in the experiment on M19-MEL melanoma was more than 100 µM in each case.

For `COc1cccc(/C=N/[N-]C(N)=O)c1[O-].[Co+2].[OH3+].c1ccncc1`, the TGI in the experiment with UACC-257 melanoma, with MALME-3M melanoma, with SN12C renal, in the experiment on NCI-H226 lung, in the experiment on RPMI-8226 leukemia and with RXF 393 renal was more than 100 µM in each case. This compound returned a TGI in the experiment on KM20L2 colon of more than 100 µM.

`N#C/C(=C\c1ccc[nH]1)C(=O)c1ccccc1`: the TGI in the experiment with UACC-257 melanoma, with MALME-3M melanoma, with SN12C renal, in the experiment on NCI-H226 lung, in the experiment on TK-10 renal and with RPMI-8226 leukemia was more than 100 µM each time. Moreover, the TGI in the experiment with RXF 393 renal, with DMS 273 small cell lung, in the experiment with KM20L2 colon and in the experiment with M19-MEL melanoma was more than 100 µM each time.

Regarding `C[C@]12CCc3nn(-c4ccccc4)nc3C1CC[C@@H]1C2CC[C@]2(C)C(=O)CCC12` (stereo not given in full), the TGI with UACC-257 melanoma, in the experiment on MALME-3M melanoma, with SN12C renal, with NCI-H226 lung, in the experiment with TK-10 renal and in the experiment on RPMI-8226 leukemia was more than 100 µM each time. Also, the TGI with RXF 393 renal, in the experiment with DMS 273 small cell lung, in the experiment with KM20L2 colon and in the experiment with M19-MEL melanoma was more than 100 µM in each case.

`COc1ccc(-c2cc(=O)c3cc(O)ccc3o2)c(OC)c1OC`: the TGI in the experiment with UACC-257 melanoma was more than 100 µM; in the experiment with MALME-3M melanoma it was more than 100 µM; in the experiment on SN12C renal, more than 100 µM; in the experiment with NCI-H226 lung, more than 100 µM; in the experiment on TK-10 renal it was more than 100 µM; with RPMI-8226 leukemia, 32.8 µM. Further, the TGI in the experiment with RXF 393 renal was 89.4 µM; in the experiment on KM20L2 colon it was 58.1 µM; in the experiment on M19-MEL melanoma, more than 100 µM.

For the compound `C=C1CN2CCc3c([nH]c4ccccc34)C2CC1CC(=O)N(C)C` (stereo not given), the TGI with UACC-257 melanoma, in the experiment with MALME-3M melanoma, with SN12C renal, with NCI-H226 lung, with TK-10 renal and in the experiment on RPMI-8226 leukemia was more than 309 µM throughout. The TGI in the experiment with RXF 393 renal, in the experiment on DMS 273 small cell lung, in the experiment with KM20L2 colon and in the experiment with M19-MEL melanoma was more than 309 µM throughout.

As for `COC(=O)C1=CCC2c3[nH]c4ccccc4c3CCN2C1` (stereo not given), the TGI with UACC-257 melanoma, with MALME-3M melanoma, in the experiment with SN12C renal, with NCI-H226 lung, with TK-10 renal and in the experiment with RPMI-8226 leukemia was more than 354 µM each time. The TGI in the experiment on RXF 393 renal, in the experiment on DMS 273 small cell lung, in the experiment with KM20L2 colon and in the experiment with M19-MEL melanoma was more than 354 µM in each case.

As for `CSC1=Nc2ccccc2N=C(c2ccccc2)C1`, the TGI in the experiment on UACC-257 melanoma is more than 100 µM; in the experiment with MALME-3M melanoma, more than 100 µM; with SN12C renal, more than 100 µM; in the experiment on NCI-H226 lung, more than 100 µM; in the experiment with TK-10 renal, more than 100 µM; in the experiment with RXF 393 renal it was 71.6 µM. In addition, the TGI in the experiment on DMS 273 small cell lung, in the experiment with KM20L2 colon and in the experiment with M19-MEL melanoma was more than 100 µM in each case.

Consider `Cn1c(=O)cc(Nc2ccc(N)cc2)[nH]c1=O`, for which the TGI in the experiment with UACC-257 melanoma, with MALME-3M melanoma, in the experiment on SN12C renal, in the experiment on NCI-H226 lung, in the experiment with MDA-N and with TK-10 renal was more than 100 µM each time. Moreover, the TGI with BT-549 breast, in the experiment on RPMI-8226 leukemia and in the experiment with RXF 393 renal was more than 100 µM in each case.

As for `CC(N)C(C)c1ccccc1` (stereo not given), the TGI in the experiment with UACC-257 melanoma, with MALME-3M melanoma, in the experiment with SN12C renal, with NCI-H226 lung, in the experiment on TK-10 renal and with RPMI-8226 leukemia was more than 100 µM throughout. Moreover, the TGI in the experiment with RXF 393 renal, with DMS 273 small cell lung and in the experiment with KM20L2 colon was more than 100 µM in each case.

Take `Cn1c(=O)n(C2(C)CSC2)c2ccccc21`: the TGI in the experiment with UACC-257 melanoma, in the experiment on SN12C renal, with NCI-H226 lung, in the experiment on TK-10 renal, in the experiment with RPMI-8226 leukemia and in the experiment with RXF 393 renal was more than 100 µM in each case. For the same compound, the TGI with DMS 273 small cell lung, with KM20L2 colon and in the experiment on M19-MEL melanoma was more than 100 µM in each case.

Consider `O=c1oc2ccccc2n1P(=O)(Oc1ccc(Cl)cc1)n1c(=O)oc2ccccc21`, for which the TGI with UACC-257 melanoma, in the experiment with MALME-3M melanoma, with SN12C renal, in the experiment with NCI-H226 lung, in the experiment on TK-10 renal and in the experiment on RXF 393 renal was more than 100 µM each time. For the same compound, the TGI in the experiment on DMS 273 small cell lung, in the experiment on KM20L2 colon and with M19-MEL melanoma was more than 100 µM throughout.

Regarding `CC#CC#C/C=C1\C=CC2(OC=CC2O)O1` (stereo not given), the TGI with UACC-257 melanoma, in the experiment on MALME-3M melanoma, with SN12C renal, in the experiment with NCI-H226 lung, in the experiment with TK-10 renal and in the experiment with RPMI-8226 leukemia was more than 23.3 µM throughout. The TGI with RXF 393 renal was more than 22 µM; in the experiment on DMS 273 small cell lung it was more than 23.3 µM; in the experiment with KM20L2 colon, 10.4 µM; with M19-MEL melanoma, more than 23.3 µM.

Consider `CC1CCc2c(sc3ncnc(N/N=C/c4ccc(Cl)cc4)c23)C1` (stereo not given), for which the TGI was 70.3 µM in the experiment on UACC-257 melanoma; more than 100 µM with MALME-3M melanoma; more than 100 µM in the experiment on SN12C renal; 44.4 µM in the experiment with NCI-H226 lung; more than 100 µM in the experiment with TK-10 renal; more than 100 µM in the experiment on RPMI-8226 leukemia. Moreover, the results for the TGI in the experiment on RXF 393 renal, in the experiment on DMS 273 small cell lung and with KM20L2 colon were 91.2 µM, more than 100 µM and 62.7 µM, respectively.

On to `Cc1c(C#N)c2nc3ccccc3n2c(=O)/c1=C/Nc1ccc(Cl)cc1`, for which the TGI in the experiment on UACC-257 melanoma is more than 100 µM; in the experiment on MALME-3M melanoma, more than 100 µM; in the experiment with SN12C renal, more than 100 µM; in the experiment with NCI-H226 lung it was more than 100 µM; in the experiment on MDA-N it was more than 100 µM; in the experiment with TK-10 renal, 35.7 µM. Further, the TGI was 99.6 µM in the experiment on BT-549 breast, more than 100 µM with RPMI-8226 leukemia and 25.6 µM in the experiment on RXF 393 renal.

Regarding `O=C(OCC(OC(=O)c1ccccc1)C1CC(C2(O)CCCCC2)C(=O)O1)c1ccccc1` (stereo not given), the TGI with UACC-257 melanoma, in the experiment on MALME-3M melanoma, with SN12C renal, with NCI-H226 lung, with MDA-N and in the experiment with TK-10 renal was more than 25 µM throughout. In addition, the TGI with BT-549 breast, in the experiment on RPMI-8226 leukemia and with RXF 393 renal was more than 25 µM throughout.
